The values that follow come from ChEMBL document CHEMBL4610032, “Inhibitory effects of triarylpyrazole derivatives on LPS-induced nitric oxide and PGE2 productions in murine RAW 264.7 macrophages” (Bioorg Med Chem Lett, 2020).

SMILES strings stand for the structures.

For series [1], the system named is RAW264.7. Description: Antiinflammatory activity against murine RAW264.7 cells assessed as inhibition of LPS-induced NO production at 10 uM preincubated for 1 hr followed by LPS stimulation and measured after 24 hrs by Griess assay relative to control. Type of series: functional. Conditions: Mus musculus. Background: Nitrite, measured by Griess reagent, commonly stands in for NO production.

A short description of series [2]: Cytotoxicity against murine RAW264.7 cells assessed as cell viability at 10 uM relative to control. Type of series: cell-based. Conditions: mouse, read-out: Activity.
Series [3] concerns RAW264.7. The experiment in a line: Antiinflammatory activity against murine RAW264.7 cells assessed as inhibition of LPS-induced PGE2 production at 10 uM preincubated for 1 hr followed by LPS stimulation and measured after 24 hrs by EIA relative to control. The format is functional. Conditions: Mus musculus.
The test system of series [4] is RAW264.7. Description: Antiinflammatory activity against murine RAW264.7 cells assessed as inhibition of LPS-induced PGE2 production preincubated for 1 hr followed by LPS stimulation and measured after 24 hrs by EIA. Conditions: Mus musculus. Type of series: functional, cell-based.
Series [5] deals with RAW264.7. Description: Antiinflammatory activity against murine RAW264.7 cells assessed as inhibition of LPS-induced PGE2 production at 10 nM preincubated for 1 hr followed by LPS stimulation and measured after 24 hrs by EIA relative to control. The format is functional. Conditions: Mus musculus.
Series [6] relates to RAW264.7. Description: Antiinflammatory activity against murine RAW264.7 cells assessed as inhibition of LPS-induced NO production at 40 uM preincubated for 1 hr followed by LPS stimulation and measured after 24 hrs by Griess assay relative to control. Type of series: functional. Conditions: Mus musculus.
For series [7], the system named is RAW264.7. The experiment in a line: Antiinflammatory activity against murine RAW264.7 cells assessed as downregulation of LPS-stimulated COX2 protein expression pretreated for 1 hr followed by LPS addition and measured after 24 hrs by Western blot analysis. Conditions: Mus musculus. Type of series: functional, cell-based.
Series [8] deals with RAW264.7. Description: Antiinflammatory activity against murine RAW264.7 cells assessed as reduction in LPS-stimulated COX2 mRNA expression pretreated for 1 hr followed by LPS addition and measured after 4 hrs by qRT-PCR analysis. Type of series: functional, cell-based. Conditions: Mus musculus. On the technique in general: Quantitative PCR measures a nucleic acid by following its amplification.

In the case of `COc1cccc(-c2nn(-c3ccccc3)cc2-c2ccnc(NCCNC(=O)c3cccc(C(F)(F)F)c3)c2)c1`, the inhibition at 10 µM with RAW264.7 [1] amounted to 19.1%; with RAW264.7 [3] it was 58.1%. Also, the viability at 10 µM in series [2] is 125%.
Taken in the same sequence, the figures for `COc1cccc(-c2nn(-c3ccccc3)cc2-c2ccnc(NCCCNC(=O)c3ccccc3)c2)c1` were 18.7%, 6.1% and 118%.
For `COc1cccc(-c2nn(-c3ccccc3)cc2-c2ccnc(NCCCNC(=O)c3cccc(C(F)(F)F)c3)c2)c1`, in the series on RAW264.7 [4], the IC50 is 5.62 µM. Besides, the inhibition at 10 µM came to 28.8% in the series on RAW264.7 [1] and 73.8% with RAW264.7 [3]. Moreover, the viability at 10 µM in series [2] was 115%.
`COc1cccc(-c2nn(-c3ccccc3)cc2-c2ccnc(NCCNC(=O)c3ccc(F)cc3)c2)c1`: the inhibition at 10 µM in the series with RAW264.7 [1] was 15.4%; in the series with RAW264.7 [3], 47.9%. In addition, in series [2], the viability at 10 µM is 136%.
Taken in the same sequence, the figures for `O=C(NCCCNc1cc(-c2cn(-c3ccccc3)nc2-c2cccc(O)c2)ccn1)c1ccccc1` were 2.1%, 12.6% and 145%.
Taken in the same sequence, the figures for `COc1cccc(-c2nn(-c3ccccc3)cc2-c2ccnc(NCCCNC(=O)c3ccc(F)cc3)c2)c1` were 18.6%, 28.9% and 133%.
Turning to `COc1cccc(-c2nn(-c3ccccc3)cc2-c2ccnc(NCCNC(=O)Nc3ccccc3)c2)c1`, the figures for the inhibition at 10 µM with RAW264.7 [1] and with RAW264.7 [3] were 12.2% and 53.9%, respectively. Moreover, the viability at 10 µM in series [2] was 143%.
For `CS(=O)(=O)Nc1ccc([N+](=O)[O-])cc1OC1CCCCC1` [NS-398], the inhibition at 0.01 µM in the series with RAW264.7 [5] came out at 59.5%.
As for `O=C(NCCNc1cc(-c2cn(-c3ccccc3)nc2-c2cccc(O)c2)ccn1)c1ccc(F)cc1`, the inhibition at 10 µM was 20.4% with RAW264.7 [1] and -1.9% in the series on RAW264.7 [3]. In addition, in series [2], the viability at 10 µM was 127%.
As for `CC(=N)NCCCC[C@H](N)C(=O)O` [L-NIL], in the series with RAW264.7 [6], the inhibition at 40 µM stood at 31.5%.
As for `COc1cccc(-c2nn(-c3ccccc3)cc2-c2ccnc(NCCCNC(=O)Nc3cccc(C(F)(F)F)c3)c2)c1`, the inhibition at 10 µM in the series with RAW264.7 [1] turned out to be 31.3%. Also, the viability at 10 µM in series [2] amounted to 124%.
In the case of `COc1ccc(C(=O)NCCNc2cc(-c3cn(-c4ccccc4)nc3-c3cccc(OC)c3)ccn2)cc1`, the inhibition at 10 µM amounted to 12.3% in the series on RAW264.7 [1] and 59.6% in the series on RAW264.7 [3]. Besides, in series [2], the viability at 10 µM is 116%.
As to `COc1cccc(-c2nn(-c3ccccc3)cc2-c2ccnc(NCCNC(=O)Nc3ccc(Cl)c(Cl)c3)c2)c1`, the IC50 in the series on RAW264.7 [4] turned out to be 4.51 µM. Further, the inhibition at 10 µM is 22% in the series with RAW264.7 [1] and 76.1% with RAW264.7 [3]. The viability at 10 µM in series [2] is 129%.
On to `COc1cccc(-c2nn(-c3ccccc3)cc2-c2ccnc(NCCCNC(=O)Nc3ccc(Cl)c(Cl)c3)c2)c1`, for which the IC50 in the series with RAW264.7 [4] came out at 4.21 µM. Moreover, the inhibition result in the series with RAW264.7 [7] is “Dose-dependent effect”. The inhibition at 10 µM came to 38.6% in the series with RAW264.7 [1] and 77.1% in the series with RAW264.7 [3]. Also, the viability at 10 µM in series [2] is 121%.
On to `O=C(NCCNc1cc(-c2cn(-c3ccccc3)nc2-c2cccc(O)c2)ccn1)c1ccc(O)cc1`, for which the inhibition at 10 µM was 34.5% in the series on RAW264.7 [1] and -56.4% with RAW264.7 [3]. Moreover, the viability at 10 µM in series [2] is 124%.
Taken in the same sequence, the figures for `O=C(NCCNc1cc(-c2cn(-c3ccccc3)nc2-c2cccc(O)c2)ccn1)c1ccccc1` were 12.2%, 20.9% and 105%.
Consider `COc1cccc(-c2nn(-c3ccccc3)cc2-c2ccnc(NCCNC(=O)c3ccccc3)c2)c1`, for which the results for the inhibition at 10 µM in the series on RAW264.7 [1] and in the series with RAW264.7 [3] were 12.8% and 36.2%, respectively. Further, the viability at 10 µM in series [2] was determined as 132%.
Taken in the same sequence, the figures for `O=C(NCCNc1cc(-c2cn(-c3ccccc3)nc2-c2cccc(O)c2)ccn1)c1cccc(C(F)(F)F)c1` were 18.6%, 12.2% and 135%.
On to `COc1cccc(-c2nn(-c3ccccc3)cc2-c2ccnc(NCCCNC(=O)Nc3ccccc3)c2)c1`, for which the inhibition at 10 µM came out at 22.2% in the series on RAW264.7 [1] and 56.3% in the series with RAW264.7 [3]. Moreover, the viability at 10 µM in series [2] came to 143%.
Take `O=C(NCCCNc1cc(-c2cn(-c3ccccc3)nc2-c2cccc(O)c2)ccn1)c1ccc(F)cc1`: the IC50 in the series on RAW264.7 [4] was 7.06 µM. Further, the inhibition at 10 µM in the series on RAW264.7 [1] worked out at 32.6%; in the series with RAW264.7 [3], 63.1%. Besides, the viability at 10 µM in series [2] was found to be 120%.
Regarding `O=C(NCCCNc1cc(-c2cn(-c3ccccc3)nc2-c2cccc(O)c2)ccn1)c1ccc(O)cc1`, the inhibition at 10 µM in the series with RAW264.7 [1] is 39.7%; in the series with RAW264.7 [3], 31.1%. Also, the viability at 10 µM in series [2] stood at 126%.
With `COc1cccc(-c2nn(-c3ccccc3)cc2-c2ccnc(NCCNC(=O)Nc3cccc(C(F)(F)F)c3)c2)c1`, the IC50 in the series with RAW264.7 [4] was determined as 5.11 µM. For the same molecule, the inhibition at 10 µM in the series with RAW264.7 [1] worked out at 26.1%; in the series on RAW264.7 [3], 69.9%. In addition, the viability at 10 µM in series [2] stood at 165%.
As for `COc1ccc(C(=O)NCCCNc2cc(-c3cn(-c4ccccc4)nc3-c3cccc(OC)c3)ccn2)cc1`, the IC50 in the series on RAW264.7 [4] came out at 2.94 µM. For the same molecule, the inhibition entry in the series with RAW264.7 [7] and in the series on RAW264.7 [8] was “Dose-dependent effect” throughout. Also, the inhibition at 10 µM with RAW264.7 [1] was 48.8%; in the series with RAW264.7 [3], 75.4%. Besides, the viability at 10 µM in series [2] is 112%.
With `O=C(NCCCNc1cc(-c2cn(-c3ccccc3)nc2-c2cccc(O)c2)ccn1)c1cccc(C(F)(F)F)c1`, in series [2], the viability at 10 µM was found to be 123%. For the same molecule, the inhibition at 10 µM in the series on RAW264.7 [3] came to 11.6%.

In general, inhibition refers to the relative decrease from the control value, in per cent. One may read the IC50 as the concentration needed to halve the response being measured.
